Experimental findings from patent US9273040B2 (Merck Sharp & Dohme Corp., priority 2011, dated 2016) are described below.

In assay [1] the target is T1, human Nav1.5 channels stably expressed in HEK 293 cells (Homo sapiens, UniProt Q14524).
T1 construct: expressed in transfected cells
Put plainly: PatchXpress 7000 automated patch-clamp, sodium current. Type of assay: cell-based. The settings on record: selectivity over Nav1.5. The text has this: (§1) To measure state and use-dependent sodium channel inhibition, test compounds were further characterized in an automated PatchXpress® assay (Molecular Devices). Two voltage-clamp protocols were used. 1) Use-dependent protocol: Cells were held at a membrane potential 20 mV negative to the potential at which ˜50% of the channels are inactivated (V0.5 inact). A train of 30 ms depolarizations to −20 mV was applied to the cells expressing Nav1.7 at a frequency of 10 Hz. […] Data was collected in the absence and presence of drug, and after drug washout. 2) A double-pulse protocol was used to measure inactivated state block. Cells were held at a potential 20 mV negative to V0.5 inact. A 8000 ms pre-pulse 7 mV positive to V0.5 inact was given followed by a hyperpolarizing 2 ms pulse to −120 mV and a 20 ms test pulse to −20 mV. Protocol was applied to cells in the absence, presence of compound and after washout. The temperature of PatchXpress instruments was maintained at 22° C. The following recording solutions were used. Internal solution (mM): 30 CsCl, 5 HEPES, 10 EGTA, 120 CsF, 5 NaF, 2MgCl2, pH=7.3 with CsOH, 324 mosmo. External solution (mM): 120 NMDG, 40 NaCl, 1 KCl, 0.5 MgCl2, 5 HEPES, 2.7 CaCl2, pH=7.5 with NMDG-OH.
(§2) For all electrophysiology experiments, offline analysis was used to correct for current rundown and to determine percent inhibition as a function of drug concentration. IC50 values were determined by fitting to the Hill equation.

For assay [2], the target named is T2, human Nav1.7 channels stably expressed in HEK 293 cells (Homo sapiens, UniProt Q15858).
T2 construct: expressed in transfected cells
The description is as above. Type of assay: cell-based. The conditions noted are these: 22° C., read-out: potency for the Nav 1.7 sodium ion channel (as measured by PatchXpress).
Source text: as §1, §2

T1 sequence (Q14524 whole entry): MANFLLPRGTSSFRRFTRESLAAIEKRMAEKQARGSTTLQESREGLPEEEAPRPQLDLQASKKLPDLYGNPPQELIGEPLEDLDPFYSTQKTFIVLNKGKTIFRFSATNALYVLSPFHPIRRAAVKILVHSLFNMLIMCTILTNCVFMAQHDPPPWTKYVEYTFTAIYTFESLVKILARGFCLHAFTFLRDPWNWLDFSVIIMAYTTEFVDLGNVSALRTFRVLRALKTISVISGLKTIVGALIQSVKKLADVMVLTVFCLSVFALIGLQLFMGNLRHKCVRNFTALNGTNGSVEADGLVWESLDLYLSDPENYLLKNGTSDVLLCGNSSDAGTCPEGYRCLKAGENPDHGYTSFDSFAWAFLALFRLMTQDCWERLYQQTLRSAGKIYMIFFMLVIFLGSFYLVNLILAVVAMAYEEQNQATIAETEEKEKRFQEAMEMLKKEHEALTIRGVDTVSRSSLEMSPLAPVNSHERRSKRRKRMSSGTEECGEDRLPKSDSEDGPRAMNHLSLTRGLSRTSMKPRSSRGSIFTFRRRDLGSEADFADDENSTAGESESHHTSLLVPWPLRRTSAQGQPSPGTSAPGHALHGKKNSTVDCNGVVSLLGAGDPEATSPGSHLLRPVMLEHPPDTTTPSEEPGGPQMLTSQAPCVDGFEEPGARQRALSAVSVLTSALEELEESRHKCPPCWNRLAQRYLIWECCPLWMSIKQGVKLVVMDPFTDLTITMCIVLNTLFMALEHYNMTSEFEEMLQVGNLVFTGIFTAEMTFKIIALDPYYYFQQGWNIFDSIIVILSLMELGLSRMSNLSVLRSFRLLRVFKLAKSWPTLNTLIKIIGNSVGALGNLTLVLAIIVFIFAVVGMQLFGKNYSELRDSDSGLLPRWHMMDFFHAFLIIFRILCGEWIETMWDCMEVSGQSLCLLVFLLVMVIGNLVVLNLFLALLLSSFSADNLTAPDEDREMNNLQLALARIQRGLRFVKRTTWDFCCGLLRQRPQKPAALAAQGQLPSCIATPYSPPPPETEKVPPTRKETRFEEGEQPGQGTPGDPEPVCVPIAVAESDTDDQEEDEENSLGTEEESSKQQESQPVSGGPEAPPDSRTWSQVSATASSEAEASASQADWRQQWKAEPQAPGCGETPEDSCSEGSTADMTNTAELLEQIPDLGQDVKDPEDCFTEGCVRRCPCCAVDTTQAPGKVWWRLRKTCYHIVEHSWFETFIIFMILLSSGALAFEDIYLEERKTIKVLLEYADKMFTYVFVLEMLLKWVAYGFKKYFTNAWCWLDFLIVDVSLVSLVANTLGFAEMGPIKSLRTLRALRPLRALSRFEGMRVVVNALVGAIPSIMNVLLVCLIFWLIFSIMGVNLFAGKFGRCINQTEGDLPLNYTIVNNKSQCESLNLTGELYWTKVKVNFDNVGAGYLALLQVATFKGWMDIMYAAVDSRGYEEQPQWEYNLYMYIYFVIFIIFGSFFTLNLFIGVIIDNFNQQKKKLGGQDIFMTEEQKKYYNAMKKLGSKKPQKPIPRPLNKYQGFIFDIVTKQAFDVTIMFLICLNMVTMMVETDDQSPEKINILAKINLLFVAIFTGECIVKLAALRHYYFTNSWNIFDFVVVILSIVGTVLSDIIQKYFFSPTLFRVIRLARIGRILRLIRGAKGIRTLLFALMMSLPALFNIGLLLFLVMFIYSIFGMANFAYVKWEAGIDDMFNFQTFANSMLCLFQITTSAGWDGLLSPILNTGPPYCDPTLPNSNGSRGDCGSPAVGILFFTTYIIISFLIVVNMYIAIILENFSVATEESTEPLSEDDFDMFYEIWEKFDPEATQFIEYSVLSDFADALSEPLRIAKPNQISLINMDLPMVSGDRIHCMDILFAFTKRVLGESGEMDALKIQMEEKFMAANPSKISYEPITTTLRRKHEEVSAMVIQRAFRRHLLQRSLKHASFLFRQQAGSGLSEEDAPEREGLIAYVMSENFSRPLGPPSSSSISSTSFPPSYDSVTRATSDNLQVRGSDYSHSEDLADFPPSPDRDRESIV
T2 sequence (Q15858 whole entry): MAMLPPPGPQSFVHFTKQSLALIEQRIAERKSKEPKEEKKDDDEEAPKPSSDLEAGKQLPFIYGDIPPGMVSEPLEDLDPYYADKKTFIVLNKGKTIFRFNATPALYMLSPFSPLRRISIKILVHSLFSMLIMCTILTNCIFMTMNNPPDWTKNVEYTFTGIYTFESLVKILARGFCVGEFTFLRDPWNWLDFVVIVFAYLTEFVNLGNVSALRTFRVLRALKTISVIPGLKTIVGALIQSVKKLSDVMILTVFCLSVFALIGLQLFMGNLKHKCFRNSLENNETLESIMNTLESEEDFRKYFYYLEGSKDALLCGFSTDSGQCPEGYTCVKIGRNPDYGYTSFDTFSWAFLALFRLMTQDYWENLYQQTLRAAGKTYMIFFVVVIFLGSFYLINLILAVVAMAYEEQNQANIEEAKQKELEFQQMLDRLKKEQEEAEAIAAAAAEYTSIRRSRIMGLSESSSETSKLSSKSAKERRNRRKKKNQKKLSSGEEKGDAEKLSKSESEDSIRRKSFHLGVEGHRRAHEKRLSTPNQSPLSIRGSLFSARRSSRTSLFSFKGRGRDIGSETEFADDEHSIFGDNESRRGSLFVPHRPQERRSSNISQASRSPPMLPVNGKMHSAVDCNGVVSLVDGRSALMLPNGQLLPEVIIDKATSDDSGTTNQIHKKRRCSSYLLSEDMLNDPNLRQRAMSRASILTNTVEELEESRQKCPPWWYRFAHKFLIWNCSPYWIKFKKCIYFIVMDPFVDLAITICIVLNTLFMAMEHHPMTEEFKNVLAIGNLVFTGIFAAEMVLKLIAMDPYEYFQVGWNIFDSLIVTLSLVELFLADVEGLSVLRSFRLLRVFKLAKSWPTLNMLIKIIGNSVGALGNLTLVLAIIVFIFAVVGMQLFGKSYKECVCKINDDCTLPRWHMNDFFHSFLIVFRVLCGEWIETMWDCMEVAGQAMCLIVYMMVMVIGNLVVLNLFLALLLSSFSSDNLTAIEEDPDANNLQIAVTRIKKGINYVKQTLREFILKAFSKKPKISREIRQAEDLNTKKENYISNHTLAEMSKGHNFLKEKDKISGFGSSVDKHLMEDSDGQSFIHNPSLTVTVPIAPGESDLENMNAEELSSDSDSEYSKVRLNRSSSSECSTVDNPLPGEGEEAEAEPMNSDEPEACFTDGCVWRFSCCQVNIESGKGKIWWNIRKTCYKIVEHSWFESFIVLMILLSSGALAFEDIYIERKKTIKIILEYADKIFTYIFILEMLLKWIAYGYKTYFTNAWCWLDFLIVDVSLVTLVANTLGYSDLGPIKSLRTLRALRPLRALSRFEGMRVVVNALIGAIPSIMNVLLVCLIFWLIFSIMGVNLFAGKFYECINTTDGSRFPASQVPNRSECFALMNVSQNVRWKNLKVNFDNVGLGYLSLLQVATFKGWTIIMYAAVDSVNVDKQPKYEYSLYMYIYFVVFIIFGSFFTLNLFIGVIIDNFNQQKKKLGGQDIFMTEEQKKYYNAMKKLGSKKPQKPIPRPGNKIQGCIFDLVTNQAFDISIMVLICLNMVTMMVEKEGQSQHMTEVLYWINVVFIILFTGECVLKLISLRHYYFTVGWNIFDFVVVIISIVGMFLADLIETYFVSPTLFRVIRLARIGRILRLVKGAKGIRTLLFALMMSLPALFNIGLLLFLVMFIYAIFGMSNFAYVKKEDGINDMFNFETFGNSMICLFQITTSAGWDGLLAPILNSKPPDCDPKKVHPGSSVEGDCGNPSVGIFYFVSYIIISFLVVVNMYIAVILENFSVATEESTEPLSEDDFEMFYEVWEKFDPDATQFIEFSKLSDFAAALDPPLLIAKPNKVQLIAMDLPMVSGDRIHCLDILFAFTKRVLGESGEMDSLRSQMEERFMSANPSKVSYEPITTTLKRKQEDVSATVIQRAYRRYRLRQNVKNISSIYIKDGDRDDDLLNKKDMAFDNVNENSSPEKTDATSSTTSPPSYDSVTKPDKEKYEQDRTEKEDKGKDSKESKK

Take `C[C@H](c1ccccc1C#CCN1CCOCC1)n1c(=O)oc2cc(S(=O)(=O)Nc3ncns3)c(F)cc21` [Compound 17-2, 5-fluoro-3-{(1R)-1-[2-(3-morpholin-4-ylprop-1-yn-1-yl)phenyl]ethyl}-2-oxo-N-1,2,4-thiadiazol-5-yl-2,3-dihydro-1,3-benzoxazole-6-sulfonamide]: in assay [1], the “ratio of Nav 1.5:Nav 1.7 potency, determined by PatchXpress measurement” value (shortened to “ratio of Nav 1.5:Nav 1.7 potency”) amounted to 90. The IC50 in assay [2] was found to be 332 nM.
Take `C[C@H](c1ccccc1CCCN)n1c(=O)oc2cc(S(=O)(=O)Nc3ncns3)c(F)cc21` [Compound 33-7, (R)-3-(1-(2-(3-Aminopropyl)phenyl)ethyl)-5-fluoro-2-oxo-N-(1,2,4-thiadiazol-5-yl)-2,3-dihydrobenzo[d]oxazole-6-sulfonamide]: the “ratio of Nav 1.5:Nav 1.7 potency” value in assay [1] is recorded as 166. Moreover, in assay [2], the IC50 stood at 51 nM.
For the compound `Nc1ccc2c(c1)C(n1c(=O)oc3cc(S(=O)(=O)Nc4nccs4)c(F)cc31)CCC2` (stereo not drawn) [Compound 43-14, 3-(7-amino-1,2,3,4-tetrahydronaphthalen-1-yl)-5-fluoro-2-oxo-N-1,3-thiazol-2-yl-2,3-dihydro-1,3-benzoxazole-6-sulfonamide], the “ratio of Nav 1.5:Nav 1.7 potency” value in assay [1] came to 724. Also, the IC50 in assay [2] was found to be 140 nM.
In the same order, the values of `Nc1cc2c(Cn3c(=O)oc4cc(S(=O)(=O)Nc5ncns5)c(F)cc43)cccc2cn1` [Compound 26-5, 3-((3-Aminoisoquinolin-5-yl)methyl)-5-fluoro-2-oxo-N-(1,2,4-thiadiazol-5-yl)-2,3-dihydrobenzo[d]oxazole-6-sulfonamide] are 450 and 67 nM.
The like results for `C[C@@H](c1cccc2ccncc12)n1c(=O)oc2cc(S(=O)(=O)Nc3ncns3)c(F)cc21` [Compound 14-10, 5-fluoro-3-[(1S)-1-isoquinolin-8-ylethyl]-2-oxo-N-1,2,4-thiadiazol-5-yl-2,3-dihydro-1,3-benzoxazole-6-sulfonamide] were, in that order, 27 and 779 nM.
Take `O=c1oc2cc(S(=O)(=O)Nc3ncns3)ccc2n1Cc1cccc2cc(Cl)ncc12` [Compound 27-7, 3-[(3-chloroisoquinolin-8-yl)methyl]-2-oxo-N-1,2,4-thiadiazol-5-yl-2,3-dihydro-1,3-benzoxazole]: in assay [1], the “ratio of Nav 1.5:Nav 1.7 potency” value amounted to 144. Moreover, the IC50 in assay [2] came out at 182 nM.
In the case of `O=c1oc2cc(S(=O)(=O)Nc3ncns3)c(F)cc2n1[C@@H]1CC2(CCC2)Oc2ccccc21` [Compound 39-14, 3-[(4R)-3,4-dihydrospiro[chromene-2,1′-cyclobutan]-4-yl]-5-fluoro-2-oxo-N-1,2,4-thiadiazol-5-yl-2,3-dihydro-1,3-benzoxazole-6-sulfonamide], in assay [1], the “ratio of Nav 1.5:Nav 1.7 potency” value stood at 99. In addition, in assay [2], the IC50 was 60 nM.
Take `CNC1CCc2cccc(Cn3c(=O)oc4cc(S(=O)(=O)Nc5ncns5)c(F)cc43)c2C1` (racemic) [Compound 23-26, (+/−)-5-fluoro-3-{[7-(methylamino)-5,6,7,8-tetrahydronaphthalen-1-yl]methyl}-2-oxo-N-1,2,4-thiadiazol-5-yl-2,3-dihydro-1,3-benzoxazole-6-sulfonamide]: the “ratio of Nav 1.5:Nav 1.7 potency” value in assay [1] came to 2451. For the same compound, the IC50 in assay [2] was 12 nM.
Regarding `C[C@H](c1cccc(C#CCN)c1)n1c(=O)oc2cc(S(=O)(=O)Nc3ncns3)c(F)cc21` [Compound 30-3, (R)-3-(1-(3-(3-aminoprop-1-yn-1-yl)phenyl)ethyl)-5-fluoro-2-oxo-N-(1,2,4-thiadiazol-5-yl)-2,3-dihydrobenzo[d]oxazole-6-sulfonamide], the “ratio of Nav 1.5:Nav 1.7 potency” value in assay [1] was found to be 289. In addition, in assay [2], the IC50 came to 28 nM.
In the same order, the values of `O=c1oc2cc(S(=O)(=O)Nc3nccs3)c(F)cc2n1Cc1cccc2c1CNCC2F` (racemic) [Compound 43-26, (+/-)-5-fluoro-3-[(4-fluoro-1,2,3,4-tetrahydroisoquinolin-8-yl)methyl]-2-oxo-N-1,3-thiazol-2-yl-2,3-dihydro-1,3-benzoxazole-6-sulfonamide] are 150 and 141 nM.
Consider `Cl.O=c1oc2cc(S(=O)(=O)Nc3ncns3)c(F)cc2n1Cc1cccc2c1CC(N1CC(F)(F)C1)CC2` (stereo not drawn) [Compound 19-6, 3-((7-(3,3-difluoroazetidin-1-yl)-5,6,7,8-tetrahydronaphthalen-1-yl)methyl)-5-fluoro-2-oxo-N-(1,2,4-thiadiazol-5-yl)-2,3-dihydrobenzo[d]oxazole-6-sulfonamide hydrochloride], for which the “ratio of Nav 1.5:Nav 1.7 potency” value in assay [1] was 103. Besides, the IC50 in assay [2] was determined as 118 nM.
The like results for `C[C@H](c1cccc2c1CNCC2)n1c(=O)oc2cc(S(=O)(=O)Nc3ncns3)c(Br)cc21` [Compound 35-5, (R)-5-bromo-2-oxo-3-(1-(1,2,3,4-tetrahydroisoquinolin-8-yl)ethyl)-N-(1,2,4-thiadiazol-5-yl)-2,3-dihydrobenzo[d]oxazole-6-sulfonamide] were, in that order, 932 and 16 nM.
For the compound `CC(N)C#Cc1ccccc1[C@@H](C)n1c(=O)oc2cc(S(=O)(=O)Nc3ncns3)c(F)cc21` (stereo partly drawn) [Compound 17-19, 3-{(1R)-1-[2-(3-aminobut-1-yn-1-yl)phenyl]ethyl}-5-fluoro-2-oxo-N-1,2,4-thiadiazol-5-yl-2,3-dihydro-1,3-benzoxazole-6-sulfonamide], the “ratio of Nav 1.5:Nav 1.7 potency” value in assay [1] worked out at 1390. In addition, the IC50 in assay [2] amounted to 22 nM.
Take `O=C(c1ccccc1)N1CCC2(CC1)CC(n1c(=O)oc3cc(S(=O)(=O)Nc4ncns4)c(F)cc31)c1cc(F)ccc1O2` (stereo not drawn) [Compound 39-9, 5-fluoro-3-[6-fluoro-1′-(phenylcarbonyl)-3,4-dihydrospiro[chromene-2,4′-piperidin]-4-yl]-2-oxo-N-1,2,4-thiadiazol-5-yl-2,3-dihydro-1,3-benzoxazole-6-sulfonamide]: the “ratio of Nav 1.5:Nav 1.7 potency” value in assay [1] is on record as 54. The IC50 in assay [2] was determined as 168 nM.
The like results for `O=c1oc2cc(S(=O)(=O)Nc3ncns3)c(F)cc2n1Cc1cccc2c1CC(NCCF)CC2` (racemic) [Compound 23-21, (+/−)-5-fluoro-3-({7-[(2-fluoroethyl)amino]-5,6,7,8-tetrahydronaphthalen-1-yl}methyl)-2-oxo-N-1,2.4-thiadiazol-5-yl-2,3-dihydro-1,3-benzoxazole-6-sulfonamide] were, in that order, 920 and 28 nM.
The like results for `NC1CCc2c(cccc2Cn2c(=O)oc3cc(S(=O)(=O)Nc4ncns4)ccc32)C1` (racemic) [Compound 23-3, (+/−)-3-[(6-amino-5,6,7,8-tetrahydronaphthalen-1-yl)methyl]-2-oxo-N-1,2,4-thiadiazol-5-yl-2,3-dihydro-1,3-benzoxazole-6-sulfonamide] were, in that order, 88 and 342 nM.
In the same order, the values of `CC(c1cccc(-c2ccnc(CO)c2)c1)n1c(=O)oc2cc(S(=O)(=O)Nc3ncns3)c(F)cc21` (stereo not drawn) [Compound 29-3, 5-fluoro-3-(1-{3-[2-(hydroxymethyl)pyridin-4-yl]phenyl}ethyl)-2-oxo-N-1,2,4-thiadiazol-5-yl-2,3-dihydro-1,3-benzoxazole-6-sulfonamide] are 61 and 216 nM.
Take `C[C@H](c1cccc2ccncc12)n1c(=O)oc2cc(S(=O)(=O)Nc3ncns3)c(F)cc21` [Compound 14-8, 5-fluoro-3-[(1R)-1-isoquinolin-8-ylethyl]-2-oxo-N-1,2,4-thiadiazol-5-yl-2,3-dihydro-1,3-benzoxazole-6-sulfonamid]: the “ratio of Nav 1.5:Nav 1.7 potency” value in assay [1] was found to be 114. In addition, the IC50 in assay [2] amounted to 71 nM.
Consider `C[C@H](c1ccccc1C#CC(C)(C)N)n1c(=O)oc2cc(S(=O)(=O)Nc3ncns3)c(F)cc21` [Compound 17-10, 3-{(1R)-1-[2-(3-amino-3-methylbut-1-yn-1-yl)phenyl]ethyl}-5-fluoro-2-oxo-N-1,2,4-thiadiazol-5-yl-2,3-dihydro-1,3-benzoxazole-6-sulfonamide], for which, in assay [1], the “ratio of Nav 1.5:Nav 1.7 potency” value worked out at 534. The IC50 in assay [2] came out at 56 nM.
Turning to `Cc1csc(NS(=O)(=O)c2ccc3c(c2)oc(=O)n3C(C)c2ccccc2)n1` (stereo not drawn) [Compound 40-5, N-(4-methyl-1,3-thiazol-2-yl)-2-oxo-3-(1-phenylethyl)-2,3-dihydro-1,3-benzoxazole-6-sulfonamide], the “ratio of Nav 1.5:Nav 1.7 potency” value in assay [1] is on record as 25. Besides, the IC50 in assay [2] is 1190 nM.
As to `Nc1ccc2c(c1)C(n1c(=O)oc3cc(S(=O)(=O)Nc4nccs4)c(F)cc31)CCC2` (stereo not drawn) [Compound 43-16, 3-(7-amino-1,2,3,4-tetrahydronaphthalen-1-yl)-5-fluoro-2-oxo-N-1,3-thiazol-2-yl-2,3-dihydro-1,3-benzoxazole-6-sulfonamide], the “ratio of Nav 1.5:Nav 1.7 potency” value in assay [1] is 329. Also, the IC50 in assay [2] was determined as 211 nM.
